# In ChEMBL document CHEMBL5579842, “Modulation of endogenous opioid signaling by inhibitors of puromycin-sensitive aminopeptidase” (Eur J Med Chem, 2024):
# The source made the active and inactive calls. The rule behind the calls is not given here.
# Tests used:
# Vero = assay: Inhibition of protein synthesis in African green monkey Vero cells at 25 uM relative to control; assay type: functional; conditions: Chlorocebus sabaeus
# [1] = Cytotoxicity against African green monkey Vero cells by MTT assay; assay type: toxicity, cell-based; conditions: chlorocebus sabaeus
# Aminopeptidase N [2] = biological target: T1, Aminopeptidase N (Homo sapiens, UniProt P15144); assay: Inhibition of Aminopeptidase N (unknown origin) using Ala-AMC as substrate at 10 uM incubated for 30 mins by SpectraMax microplate reader analysis relative to control
# [3] = biological target: Puromycin-sensitive aminopeptidase (Homo sapiens, UniProt P55786); assay: Inhibition of human N-terminal His-tagged Puromycin-sensitive aminopeptidase extracted from Escherichia coli BL21 STAR (DE3) using alanine-4-methoxy-2-naphthylamide as substrate incubated for 30 mins by SpectraMax microplate reader analysis
# Aminopeptidase N [4] = biological target: T1, Aminopeptidase N; assay: Inhibition of Aminopeptidase N (unknown origin) using Ala-AMC as substrate incubated for 30 mins by SpectraMax microplate reader analysis
# Mus musculus [5] = assay: Antinociceptive activity in CF-1 mouse assessed as analgesic effect at 50 to 100 ug,icv administration measured after 45 mins by tail-flick test; assay type: functional, organism-based; conditions: dose 50-100 µg
# Mus musculus [6] = assay: Antinociceptive activity in CF-1 mouse assessed as increase in maximal possible effect at 50 to 100 ug,icv administration measured after 60 mins by tail-flick test; assay type: functional, organism-based; conditions: dose 50-100 µg
# Mus musculus [7] = assay: Antinociceptive activity in CF-1 mouse assessed as analgesic effect at ip administration measured after 60 mins by tail-flick test; assay type: functional, organism-based
# Mus musculus [8] = assay: Antinociceptive activity in CF-1 mouse assessed as analgesic effect at 50 to 100 ug,icv administration measured after 60 mins by tail-flick test; assay type: functional, organism-based; conditions: dose 50-100 µg
# Mus musculus [9] = assay: Antinociceptive activity in CF-1 mouse assessed as increase in maximal possible effect at 50 to 100 ug,icv administration measured after 15 mins by tail-flick test; assay type: functional, organism-based; conditions: dose 50-100 µg
# Mus musculus [10] = assay: Antinociceptive activity in CF-1 mouse assessed as analgesic effect at 50 to 100 ug,icv administration measured after 15 mins by hot plate assay; assay type: functional, organism-based; conditions: dose 50-100 µg
# Mus musculus [11] = assay: Antinociceptive activity in CF-1 mouse assessed as analgesic effect at ip administration measured after 15 mins by hot plate assay; assay type: functional, organism-based
# Mus musculus [12] = assay: Antinociceptive activity in CF-1 mouse assessed as increase in maximal possible effect at 50 to 100 ug,icv administration in presence of Met-enkephalin measured after 65 mins by tail-flick test; assay type: functional, organism-based; conditions: dose 50-100 µg
# Mus musculus [13] = assay: Antinociceptive activity in CF-1 mouse assessed as increase in maximal possible effect at 50 to 100 ug,icv administration in presence of Met-enkephalin measured after 15 mins by tail-flick test; assay type: functional, organism-based; conditions: dose 50-100 µg
# Mus musculus [14] = assay: Antinociceptive activity in CF-1 mouse assessed as increase in maximal possible effect at 50 to 100 ug,icv administration in presence of Met-enkephalin measured after 65 mins by hot plate assay; assay type: functional, organism-based; conditions: dose 50-100 µg
# Mus musculus [15] = assay: Antinociceptive activity in CF-1 mouse assessed as increase in maximal possible effect at 50 to 100 ug,icv administration in presence of Met-enkephalin measured after 15 mins by hot plate assay; assay type: functional, organism-based; conditions: dose 50-100 µg
# Mus musculus [16] = assay: Antinociceptive activity in CF-1 mouse assessed as increase in maximal possible effect at 50 to 100 ug,icv administration in presence of naloxone measured after 65 mins by tail-flick test; assay type: functional, organism-based; conditions: dose 50-100 µg
# Mus musculus [17] = assay: Antinociceptive activity in CF-1 mouse assessed as increase in maximal possible effect at 50 to 100 ug,icv administration in presence of naloxone measured after 15 mins by tail-flick test; assay type: functional, organism-based; conditions: dose 50-100 µg
# Mus musculus [18] = assay: Antinociceptive activity in CF-1 mouse assessed as increase in maximal possible effect at 50 to 100 ug,icv administration in presence of naloxone measured after 65 mins by hot plate assay; assay type: functional, organism-based; conditions: dose 50-100 µg
# Mus musculus [19] = assay: Antinociceptive activity in CF-1 mouse assessed as increase in maximal possible effect at 50 to 100 ug,icv administration in presence of naloxone measured after 15 mins by hot plate assay; assay type: functional, organism-based; conditions: dose 50-100 µg
# Mus musculus [20] = assay: Antinociceptive activity in CF-1 mouse assessed as increase in Met-enkephalin level in brain at 50 to 100 ug,icv administration in presence of KCL measured after 65 mins by LC-MS/MS analysis; assay type: functional, organism-based; conditions: dose 50-100 µg
# Mus musculus [21] = assay: Antinociceptive activity in CF-1 mouse assessed as increase in Leu-enkephalin level in brain at 50 to 100 ug,icv administration in presence of KCL measured after 65 mins by LC-MS/MS analysis; assay type: functional, organism-based; conditions: dose 50-100 µg
# Mus musculus [22] = assay: Antinociceptive activity in CF-1 mouse assessed as increase in MERF level in brain at 50 to 100 ug,icv administration in presence of KCL measured after 65 mins by LC-MS/MS analysis; assay type: functional, organism-based; conditions: dose 50-100 µg
# [23] = Stability in mouse plasma assessed as compound remaining at 1 uM measured after 24 hr by LC-MS/MS analysis relative to control; assay type: ADME, cell-free
# T1 sequence (P15144 whole entry): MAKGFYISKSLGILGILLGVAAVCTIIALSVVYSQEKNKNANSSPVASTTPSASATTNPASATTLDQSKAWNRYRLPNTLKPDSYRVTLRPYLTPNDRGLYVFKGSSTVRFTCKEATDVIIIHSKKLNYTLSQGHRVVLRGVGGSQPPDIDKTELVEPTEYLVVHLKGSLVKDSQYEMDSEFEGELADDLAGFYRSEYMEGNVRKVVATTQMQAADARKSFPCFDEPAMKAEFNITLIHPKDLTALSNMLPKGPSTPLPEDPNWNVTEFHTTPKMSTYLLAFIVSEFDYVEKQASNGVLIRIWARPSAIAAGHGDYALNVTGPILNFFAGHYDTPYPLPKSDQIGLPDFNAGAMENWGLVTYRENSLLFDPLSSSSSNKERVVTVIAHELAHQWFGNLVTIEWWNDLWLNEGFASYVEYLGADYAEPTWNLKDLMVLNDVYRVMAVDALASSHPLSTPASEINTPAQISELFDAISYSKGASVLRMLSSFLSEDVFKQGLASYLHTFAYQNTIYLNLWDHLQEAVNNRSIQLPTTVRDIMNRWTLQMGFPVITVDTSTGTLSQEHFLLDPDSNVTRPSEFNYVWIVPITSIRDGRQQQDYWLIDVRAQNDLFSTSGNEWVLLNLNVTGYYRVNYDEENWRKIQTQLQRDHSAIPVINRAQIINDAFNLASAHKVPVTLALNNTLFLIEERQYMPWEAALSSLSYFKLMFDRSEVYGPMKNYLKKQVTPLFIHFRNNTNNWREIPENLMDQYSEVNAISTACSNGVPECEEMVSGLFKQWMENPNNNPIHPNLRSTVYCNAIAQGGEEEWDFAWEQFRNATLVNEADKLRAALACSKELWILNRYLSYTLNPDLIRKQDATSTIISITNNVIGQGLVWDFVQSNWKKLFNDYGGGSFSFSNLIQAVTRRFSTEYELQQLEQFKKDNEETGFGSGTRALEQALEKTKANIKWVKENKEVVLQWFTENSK
# Chain of Puromycin-sensitive aminopeptidase (P55786 whole entry): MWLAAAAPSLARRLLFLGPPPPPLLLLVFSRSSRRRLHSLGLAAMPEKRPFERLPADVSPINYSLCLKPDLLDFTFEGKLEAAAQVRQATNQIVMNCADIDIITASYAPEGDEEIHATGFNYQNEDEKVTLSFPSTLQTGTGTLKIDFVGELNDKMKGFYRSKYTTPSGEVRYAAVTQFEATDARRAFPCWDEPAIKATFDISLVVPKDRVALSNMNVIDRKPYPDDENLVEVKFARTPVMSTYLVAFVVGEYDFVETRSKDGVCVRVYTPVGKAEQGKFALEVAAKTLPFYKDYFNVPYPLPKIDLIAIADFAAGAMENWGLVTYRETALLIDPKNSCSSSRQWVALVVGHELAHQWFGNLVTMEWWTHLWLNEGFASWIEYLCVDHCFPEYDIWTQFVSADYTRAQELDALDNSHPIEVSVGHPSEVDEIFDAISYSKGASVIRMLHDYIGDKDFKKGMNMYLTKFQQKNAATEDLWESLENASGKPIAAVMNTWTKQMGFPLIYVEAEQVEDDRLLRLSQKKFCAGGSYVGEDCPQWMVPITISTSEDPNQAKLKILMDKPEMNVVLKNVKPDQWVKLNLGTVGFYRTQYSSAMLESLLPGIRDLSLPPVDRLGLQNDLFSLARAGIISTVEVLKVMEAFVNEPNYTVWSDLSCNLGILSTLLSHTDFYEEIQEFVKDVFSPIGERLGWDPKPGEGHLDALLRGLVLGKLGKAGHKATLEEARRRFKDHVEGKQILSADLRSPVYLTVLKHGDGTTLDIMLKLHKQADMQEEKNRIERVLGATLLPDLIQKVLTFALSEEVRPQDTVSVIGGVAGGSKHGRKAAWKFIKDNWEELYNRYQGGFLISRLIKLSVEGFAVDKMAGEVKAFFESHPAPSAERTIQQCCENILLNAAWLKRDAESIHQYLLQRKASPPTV
smiles,measurement,setting,value
CN(C)c1ncnc2c1ncn2[C@@H]1O[C@H](CO)[C@@H](NC(=O)[C@H](N)CSC(c2ccccc2)c2ccccc2)[C@H]1O,inhibition at 25 µM,Vero,0%
same,CC50,[1],46 µM
COc1ccc(C[C@H](N)C(=O)N[C@H]2[C@@H](O)[C@H](n3cnc4c(N(C)C)ncnc43)O[C@@H]2CO)cc1 [PUROMYCIN],inhibition at 25 µM,Vero,99%
same,CC50,[1],2.76 µM
CN(C)c1ncnc2c1ncn2[C@@H]1O[C@H](CCl)[C@@H](NC(=O)[C@@H](CSC(c2ccccc2)c2ccccc2)NC(=O)OC(C)(C)C)[C@H]1O,inhibition,Aminopeptidase N [2],0%
same,inhibition at 25 µM,Vero,0%
same,CC50,[1],67.4 µM
CN(C)c1ncnc2c1ncn2[C@@H]1O[C@H](CCl)[C@@H](NC(=O)[C@@H](N)CSC23CC4CC(CC(C4)C2)C3)[C@H]1O,IC50,[3],0.005 µM
same,IC50,Aminopeptidase N [4],0.084 µM
same,inhibition,Aminopeptidase N [2],99.1%
same,inhibition at 25 µM,Vero,10.4%
CC(C)C[C@H](NC(=O)[C@@H](O)[C@H](N)Cc1ccccc1)C(=O)O [UBENIMEX],inhibition at 25 µM,Vero,28%
same,CC50,[1],25 µM
CN(C)c1ncnc2c1ncn2[C@@H]1O[C@H](CCl)[C@@H](NC(=O)[C@H](CSC(c2ccccc2)c2ccccc2)NC(=O)OC(C)(C)C)[C@H]1O,inhibition,Aminopeptidase N [2],4.6%
same,inhibition at 25 µM,Vero,3%
same,CC50,[1],> 100 µM
O=C(O)CNC(=O)C(CS)Cc1ccccc1 (centres undefined) [THIORPHAN],IC50,[3],57.3 µM
same,IC50,Aminopeptidase N [4],> 100 µM
same,inhibition,Aminopeptidase N [2],0%
same,inhibition at 25 µM,Vero,70.3%
same,CC50,[1],> 100 µM
CN(C)c1ncnc2c1ncn2[C@@H]1O[C@H](CCl)[C@@H](NC(=O)[C@H](CSC23CC4CC(CC(C4)C2)C3)NC(=O)OC(C)(C)C)[C@H]1O,inhibition,Aminopeptidase N [2],0%
same,inhibition at 25 µM,Vero,22.1%
CN(C)c1ncnc2c1ncn2[C@@H]1O[C@H](CO)[C@@H](NC(=O)[C@@H](N)CSC23CC4CC(CC(C4)C2)C3)[C@H]1O,inhibition,Aminopeptidase N [2],99.1%
same,inhibition at 25 µM,Vero,24%
same,CC50,[1],17.6 µM
COc1ccc(C[C@H](N)C(=O)N[C@H]2[C@@H](O)[C@H](n3cnc4c(N(C)C)ncnc43)O[C@@H]2CCl)cc1,IC50,Aminopeptidase N [4],> 100 µM
same,inhibition at 25 µM,Vero,26.1%
CC(C)C[C@@H](C(=O)N[C@H](C(=O)OC1CCCC1)c1ccccc1)[C@H](O)C(=O)NO [TOSEDOSTAT],inhibition at 25 µM,Vero,34.5%
same,CC50,[1],12.7 µM
CN(C)c1ncnc2c1ncn2[C@@H]1O[C@H](CO)[C@@H](NC(=O)[C@@H](N)CSC(c2ccccc2)c2ccccc2)[C@H]1O,IC50,[3],0.007 µM
same,inhibition at 25 µM,Vero,0%
same,CC50,[1],> 100 µM
CN(C)c1ncnc2c1ncn2[C@@H]1O[C@H](CCl)[C@@H](NC(=O)[C@@H](N)CSC(c2ccccc2)c2ccccc2)[C@H]1O,IC50,[3],0.007 µM
same,IC50,Aminopeptidase N [4],2.6 µM
same,inhibition,Aminopeptidase N [2],55.8%
same,inhibition at 25 µM,Vero,0%
same,CC50,[1],> 100 µM
same,Activity,Mus musculus [5],Active
same,Activity,Mus musculus [6],Active
same,Activity,Mus musculus [7],inactive
same,Activity,Mus musculus [8],Active
same,Activity,Mus musculus [9],Active
same,Activity,Mus musculus [10],Active
same,Activity,Mus musculus [11],inactive
same,Activity,Mus musculus [12],Active
same,Activity,Mus musculus [13],Active
same,Activity,Mus musculus [14],Active
same,Activity,Mus musculus [15],Active
same,Activity,Mus musculus [16],inactive
same,Activity,Mus musculus [17],inactive
same,Activity,Mus musculus [18],inactive
same,Activity,Mus musculus [19],inactive
same,Activity,Mus musculus [20],inactive
same,Activity,Mus musculus [21],Active
same,Activity,Mus musculus [22],Active
same,Stability,[23],116.7%
CN(C)c1ncnc2c1ncn2[C@@H]1O[C@H](CCl)[C@@H](NC(=O)[C@H](N)CSC(c2ccccc2)c2ccccc2)[C@H]1O,inhibition,Aminopeptidase N [2],38.9%
same,inhibition at 25 µM,Vero,0%
